System: MV-4-11 cells
Assay: Gene expression microarray analysis (Affymetrix PrimeView) and GSEA
Format: cell-based, human
Set-up: RFU PODN (11730768_x_at) / Fold change /veh PODN (11730768_x_at) / RFU LINC00158 (11744669_a_at) / Fold change /veh LINC00158 (11744669_a_at) / RFU DUSP10 (11751237_a_at) / Fold change /veh DUSP10 (11751237_a_at) / RFU ID3 (11757404_x_at) / Fold change /veh ID3 (11757404_x_at) / RFU PLEKHG5 (11737974_s_at) / Fold change /veh PLEKHG5 (11737974_s_at) / RFU LRRC4B (11730491_at) / Fold change /veh LRRC4B (11730491_at) / RFU GIMAP4 (11747438_a_at) / Fold change /veh GIMAP4 (11747438_a_at) / RFU KRT8 (11758183_x_at) / Fold change /veh KRT8 (11758183_x_at) / RFU CNN1 (11734310_a_at) / Fold change /veh CNN1 (11734310_a_at) / RFU VPS37D (11726825_at) / Fold change /veh VPS37D (11726825_at) / RFU C10orf10 (11716522_x_at) / Fold change /veh C10orf10 (11716522_x_at) / RFU KIR2DL2 /// KIR2DL4 /// KIR2DL5A /// KIR2DL5B /// KIR2DS1 /// KIR2DS2 /// KIR2DS3 /// KIR2DS4 /// KIR3DL3 /// KIR3DL3 /// KIR3DS1 (11738374_at) / Fold change /veh KIR2DL2 /// KIR2DL4 /// KIR2DL5A /// KIR2DL5B /// KIR2DS1 /// KIR2DS2 /// KIR2DS3 /// KIR2DS4 /// KIR3DL3 /// KIR3DL3 /// KIR3DS1 (11738374_at) / RFU C1QL1 (11718748_at) / Fold change /veh C1QL1 (11718748_at) / RFU TMPRSS4 (11747572_a_at) / Fold change /veh TMPRSS4 (11747572_a_at) / RFU HAMP (11756126_x_at) / Fold change /veh HAMP (11756126_x_at) / RFU RNFT2 (11725882_a_at) / Fold change /veh RNFT2 (11725882_a_at) / RFU NR4A2 (11747474_a_at) / Fold change /veh NR4A2 (11747474_a_at) / RFU ABCC12 (11746883_a_at) / Fold change /veh ABCC12 (11746883_a_at) / RFU TMEM136 (11760407_x_at) / Fold change /veh TMEM136 (11760407_x_at) / RFU CLDN22 /// WWC2 (11732394_at) / Fold change /veh CLDN22 /// WWC2 (11732394_at) / RFU HLA-DPB1 (11760878_x_at) / Fold change /veh HLA-DPB1 (11760878_x_at) / RFU SPINT1 (11716480_a_at) / Fold change /veh SPINT1 (11716480_a_at) / RFU GAP43 (11754022_s_at) / Fold change /veh GAP43 (11754022_s_at) / RFU A4GNT (11735810_at) / Fold change /veh A4GNT (11735810_at) / RFU PRB3 (11715151_x_at) / Fold change /veh PRB3 (11715151_x_at) / RFU TUBB4B (11761932_at) / Fold change /veh TUBB4B (11761932_at) / RFU CAPN14 (11732068_a_at) / Fold change /veh CAPN14 (11732068_a_at) / RFU TMCC2 (11721928_a_at) / Fold change /veh TMCC2 (11721928_a_at) / RFU IRGQ (11745062_a_at) / Fold change /veh IRGQ (11745062_a_at) / RFU FAM174B (11720279_a_at) / Fold change /veh FAM174B (11720279_a_at) / RFU TMPRSS4 (11748680_a_at) / Fold change /veh TMPRSS4 (11748680_a_at) / RFU FAM212B (11763350_a_at) / Fold change /veh FAM212B (11763350_a_at) / RFU PLEKHG5 (11743358_a_at) / Fold change /veh PLEKHG5 (11743358_a_at) / RFU ZSCAN30 (11745921_a_at) / Fold change /veh ZSCAN30 (11745921_a_at) / RFU CMKLR1 (11741424_a_at) / Fold change /veh CMKLR1 (11741424_a_at) / RFU LOC101060620 /// MAPK8IP1 (11723275_at) / Fold change /veh LOC101060620 /// MAPK8IP1 (11723275_at) / RFU SPTSSB (11747773_x_at) / Fold change /veh SPTSSB (11747773_x_at) / RFU PRSS12 (11739890_at) / Fold change /veh PRSS12 (11739890_at) / RFU BIN1 (11741810_x_at) / Fold change /veh BIN1 (11741810_x_at) / RFU WNT11 (11732464_a_at) / Fold change /veh WNT11 (11732464_a_at) / RFU C10orf10 (11716521_a_at) / Fold change /veh C10orf10 (11716521_a_at) / RFU C5orf56 (11738089_at) / Fold change /veh C5orf56 (11738089_at) / RFU CYB561 (11721691_x_at) / Fold change /veh CYB561 (11721691_x_at) / RFU ANKRD19P (11752326_a_at) / Fold change /veh ANKRD19P (11752326_a_at) / RFU OR2T12 /// OR2T33 /// OR2T8 (11738714_s_at) / Fold change /veh OR2T12 /// OR2T33 /// OR2T8 (11738714_s_at) / RFU VCAN (11748164_a_at) / Fold change /veh VCAN (11748164_a_at) / RFU JSRP1 (11732532_at) / Fold change /veh JSRP1 (11732532_at) / RFU KRTAP10-11 (11738290_x_at) / Fold change /veh KRTAP10-11 (11738290_x_at) / RFU MYO3A (11730013_a_at) / Fold change /veh MYO3A (11730013_a_at) / RFU EBF3 (11725865_a_at) / Fold change /veh EBF3 (11725865_a_at) / RFU CAMK2N1 (11719241_x_at) / Fold change /veh CAMK2N1 (11719241_x_at) / RFU C5orf56 (11738088_a_at) / Fold change /veh C5orf56 (11738088_a_at) / RFU OLFML3 (11715873_a_at) / Fold change /veh OLFML3 (11715873_a_at) / RFU LOC100653217 /// NTM (11731650_a_at) / Fold change /veh LOC100653217 /// NTM (11731650_a_at) / RFU MAPK11 (11762145_a_at) / Fold change /veh MAPK11 (11762145_a_at) / RFU FIZ1 (11724087_x_at) / Fold change /veh FIZ1 (11724087_x_at) / RFU OASL (11726364_x_at) / Fold change /veh OASL (11726364_x_at) / RFU SOX15 (11748057_x_at) / Fold change /veh SOX15 (11748057_x_at) / RFU CD79A (11719716_a_at) / Fold change /veh CD79A (11719716_a_at) / RFU HIST1H1D (11736915_at) / Fold change /veh HIST1H1D (11736915_at) / RFU CASKIN2 (11723855_a_at) / Fold change /veh CASKIN2 (11723855_a_at) / RFU LOC730098 (11760151_x_at) / Fold change /veh LOC730098 (11760151_x_at) / RFU OR4N2 (11742367_at) / Fold change /veh OR4N2 (11742367_at) / RFU PRRT2 (11749266_a_at) / Fold change /veh PRRT2 (11749266_a_at) / RFU SNX32 (11753110_a_at) / Fold change /veh SNX32 (11753110_a_at) / RFU CDHR5 (11726645_a_at) / Fold change /veh CDHR5 (11726645_a_at) / RFU RCAN1 (11760418_a_at) / Fold change /veh RCAN1 (11760418_a_at) / RFU FAM167A (11723789_a_at) / Fold change /veh FAM167A (11723789_a_at) / RFU FAM26E (11764081_at) / Fold change /veh FAM26E (11764081_at) / RFU ISYNA1 (11749810_s_at) / Fold change /veh ISYNA1 (11749810_s_at) / RFU ACY1 (11761880_at) / Fold change /veh ACY1 (11761880_at) / RFU 11764098_at / Fold change /veh 11764098_at / RFU SAMD14 (11745864_x_at) / Fold change /veh SAMD14 (11745864_x_at) / RFU NPB (11741838_a_at) / Fold change /veh NPB (11741838_a_at) / RFU TMPRSS6 (11731388_a_at) / Fold change /veh TMPRSS6 (11731388_a_at) / RFU KRTAP10-2 (11738614_at) / Fold change /veh KRTAP10-2 (11738614_at) / RFU ARHGAP8 /// PRR5-ARHGAP8 (11727945_x_at) / Fold change /veh ARHGAP8 /// PRR5-ARHGAP8 (11727945_x_at) / RFU KRTAP5-7 /// NADSYN1 (11734609_at) / Fold change /veh KRTAP5-7 /// NADSYN1 (11734609_at) / RFU RASL12 (11751679_a_at) / Fold change /veh RASL12 (11751679_a_at) / RFU CDKN2B (11736163_a_at) / Fold change /veh CDKN2B (11736163_a_at) / RFU PRF1 (11729649_at) / Fold change /veh PRF1 (11729649_at) / RFU, ZNF638 /// ZNF638-IT1 / Fold change vs veh, ZNF638 /// ZNF638-IT1 / RFU, PANK3 / Fold change vs veh, PANK3 / RFU, SH3YL1 / Fold change vs veh, SH3YL1 / RFU, ZEB2 / Fold change vs veh, ZEB2 / RFU, NRIP1 / Fold change vs veh, NRIP1 / RFU, PTTG1IP / Fold change vs veh, PTTG1IP / RFU, CAPN2 / Fold change vs veh, CAPN2 / RFU, MED14 / Fold change vs veh, MED14 / RFU, SNORA58 / Fold change vs veh, SNORA58 / RFU, C1orf63 / Fold change vs veh, C1orf63 / RFU, LRRFIP1 / Fold change vs veh, LRRFIP1 / RFU, NDUFAF7 / Fold change vs veh, NDUFAF7 / RFU, SLC12A2 / Fold change vs veh, SLC12A2 / RFU, IBTK / Fold change vs veh, IBTK / RFU, ESF1 / Fold change vs veh, ESF1 / Fold change vs veh, TMEM50B / RFU, TAOK1 / Fold change vs veh, TAOK1 / RFU, ACBD3 / Fold change vs veh, ACBD3 / RFU, TMA16 / Fold change vs veh, TMA16 / RFU, RWDD3 / Fold change vs veh, RWDD3 / RFU, BCAT1 / Fold change vs veh, BCAT1 / RFU, EDEM3 / Fold change vs veh, EDEM3 / RFU, TMEM33 / Fold change vs veh, TMEM33 / RFU, WDR75 / Fold change vs veh, WDR75 / RFU, AHCTF1 / Fold change vs veh, AHCTF1 / RFU, TFRC / Fold change vs veh, TFRC / RFU, ZDHHC17 / Fold change vs veh, ZDHHC17 / RFU, NOM1 / Fold change vs veh, NOM1 / RFU, ARL8B / Fold change vs veh, ARL8B / RFU, ZBTB11 / Fold change vs veh, ZBTB11 / RFU, TAMM41 / Fold change vs veh, TAMM41 / RFU, KIAA1704 /// LOC100996395 / Fold change vs veh, KIAA1704 /// LOC100996395 / RFU, ING1 / Fold change vs veh, ING1 / RFU, TRMT61B / Fold change vs veh, TRMT61B / RFU, FUBP3 / Fold change vs veh, FUBP3 / RFU, TP53 / Fold change vs veh, TP53 / RFU, TNKS2 / Fold change vs veh, TNKS2 / RFU, ZFP14 / Fold change vs veh, ZFP14 / RFU, ACTR2 / Fold change vs veh, ACTR2 / RFU, PPP3R1 / Fold change vs veh, PPP3R1 / RFU, PIK3R1 / Fold change vs veh, PIK3R1 / RFU, HNRNPA1 / Fold change vs veh, HNRNPA1 / RFU, RNF170 / Fold change vs veh, RNF170 / RFU, ZNF28 / Fold change vs veh, ZNF28 / RFU, RNGTT / Fold change vs veh, RNGTT / RFU, OGT / Fold change vs veh, OGT / RFU, BRD1 / Fold change vs veh, BRD1 / RFU, MARS / Fold change vs veh, MARS / RFU, ZNF655 / Fold change vs veh, ZNF655 / RFU, FAHD1 / Fold change vs veh, FAHD1 / RFU, BDP1 / Fold change vs veh, BDP1 / RFU, LRRCC1 / Fold change vs veh, LRRCC1 / RFU, ARID1A / Fold change vs veh, ARID1A / RFU, ZNF146 / Fold change vs veh, ZNF146 / RFU, ZNF330 / Fold change vs veh, ZNF330 / RFU, GPN3 / Fold change vs veh, GPN3 / RFU, C9orf123 / Fold change vs veh, C9orf123 / RFU, N4BP2L2 / Fold change vs veh, N4BP2L2 / RFU, ARFIP1 / Fold change vs veh, ARFIP1 / RFU, FAM179B / Fold change vs veh, FAM179B / RFU, BCL10 / Fold change vs veh, BCL10 / RFU, UHRF1BP1L / Fold change vs veh, UHRF1BP1L / RFU, BET1 / Fold change vs veh, BET1 / RFU, CNOT2 / Fold change vs veh, CNOT2 / RFU, ZNF268 / Fold change vs veh, ZNF268 / Fold change vs veh, ZNF507 / RFU, DGCR2 / Fold change vs veh, DGCR2 / RFU, WDSUB1 / Fold change vs veh, WDSUB1 / Fold change vs veh, HSP90B1 /// MIR3652 / RFU, ADSS / Fold change vs veh, ADSS / RFU, GK / Fold change vs veh, GK / RFU, ZNF148 / Fold change vs veh, ZNF148 / RFU, TAF9 / Fold change vs veh, TAF9 / RFU, SLC1A5 / Fold change vs veh, SLC1A5 / RFU, SLMO2 / Fold change vs veh, SLMO2 / RFU, ABCC4 / Fold change vs veh, ABCC4 / RFU, LOC101060439 /// RAP1B / Fold change vs veh, LOC101060439 /// RAP1B / RFU, RFX7 / Fold change vs veh, RFX7 / RFU, GTPBP10 / Fold change vs veh, GTPBP10 / RFU, CNEP1R1 / Fold change vs veh, CNEP1R1 / RFU, BIVM-ERCC5 /// ERCC5 / Fold change vs veh, BIVM-ERCC5 /// ERCC5 / RFU, ILF3 / Fold change vs veh, ILF3 / RFU 11762660_at / Fold change /veh 11762660_at / RFU VCAN (11757783_s_at) / Fold change /veh VCAN (11757783_s_at) / RFU DDX43 (11728927_at) / Fold change /veh DDX43 (11728927_at) / RFU KRT8 (11758188_x_at) / Fold change /veh KRT8 (11758188_x_at) / RFU NKD1 (11759106_at) / Fold change /veh NKD1 (11759106_at) / RFU SRD5A1 (11742802_a_at) / Fold change /veh SRD5A1 (11742802_a_at) / RFU TPSAB1 /// TPSB2 (11721975_s_at) / Fold change /veh TPSAB1 /// TPSB2 (11721975_s_at) / RFU GSTM3 (11746129_a_at) / Fold change /veh GSTM3 (11746129_a_at) / RFU IL23R (11737362_x_at) / Fold change /veh IL23R (11737362_x_at) / RFU TMEM51 (11727254_a_at) / Fold change /veh TMEM51 (11727254_a_at) / RFU PIWIL2 (11732686_x_at) / Fold change /veh PIWIL2 (11732686_x_at) / RFU ORM1 (11744905_x_at) / Fold change /veh ORM1 (11744905_x_at) / RFU CCDC152 (11743942_at) / Fold change /veh CCDC152 (11743942_at) / RFU ECM1 (11717891_a_at) / Fold change /veh ECM1 (11717891_a_at) / RFU IL23R (11748794_a_at) / Fold change /veh IL23R (11748794_a_at) / RFU TNFAIP8L3 (11732012_x_at) / Fold change /veh TNFAIP8L3 (11732012_x_at) / RFU MBOAT4 (11741988_at) / Fold change /veh MBOAT4 (11741988_at) / RFU 11764193_at / Fold change /veh 11764193_at / RFU TMEM53 (11763286_at) / Fold change /veh TMEM53 (11763286_at) / RFU MAGEB2 (11727129_at) / Fold change /veh MAGEB2 (11727129_at) / RFU TMEM200A (11744735_a_at) / Fold change /veh TMEM200A (11744735_a_at) / RFU CCDC152 (11751479_a_at) / Fold change /veh CCDC152 (11751479_a_at) / RFU FAM211A (11726209_a_at) / Fold change /veh FAM211A (11726209_a_at) / RFU RGS16 (11746705_a_at) / Fold change /veh RGS16 (11746705_a_at) / RFU VCAN (11755009_s_at) / Fold change /veh VCAN (11755009_s_at) / RFU RHOB (11743442_s_at) / Fold change /veh RHOB (11743442_s_at) / RFU RGS16 (11720943_a_at) / Fold change /veh RGS16 (11720943_a_at) / RFU RGS16 (11720944_at) / Fold change /veh RGS16 (11720944_at) / RFU, VPS4B / Fold change vs veh, VPS4B / RFU, CREB1 / Fold change vs veh, CREB1 / RFU, DNAJC13 / Fold change vs veh, DNAJC13 / RFU, GNAQ / Fold change vs veh, GNAQ / RFU, CDK5R1 / Fold change vs veh, CDK5R1 / RFU, ZRANB3 / Fold change vs veh, ZRANB3 / RFU, CUL4A / Fold change vs veh, CUL4A / RFU, CCNY / Fold change vs veh, CCNY / RFU, UFL1 / Fold change vs veh, UFL1 / RFU, COG3 / Fold change vs veh, COG3 / RFU, DIAPH2 / Fold change vs veh, DIAPH2 / RFU, SKA2 / Fold change vs veh, SKA2 / RFU, AFF3 / Fold change vs veh, AFF3 / RFU, LMF1 / Fold change vs veh, LMF1 / RFU, IPO11 / Fold change vs veh, IPO11 / RFU, DFFB / Fold change vs veh, DFFB / RFU, FOXP1 / Fold change vs veh, FOXP1 / RFU, CARD8 / Fold change vs veh, CARD8 / RFU, STRN3 / Fold change vs veh, STRN3 / RFU, ADK / Fold change vs veh, ADK / RFU, RASSF2 / Fold change vs veh, RASSF2 / RFU, WIPF1 / Fold change vs veh, WIPF1 / RFU, LARP1B / Fold change vs veh, LARP1B / RFU, RASA1 / Fold change vs veh, RASA1 / RFU, RB1 / Fold change vs veh, RB1 / RFU, PPFIA1 / Fold change vs veh, PPFIA1 / RFU, MAT2A / Fold change vs veh, MAT2A / RFU, CCT5 / Fold change vs veh, CCT5 / RFU, WDR92 / Fold change vs veh, WDR92 / RFU, CUX1 / Fold change vs veh, CUX1 / RFU, TTC7A / Fold change vs veh, TTC7A / RFU, TMEM135 / Fold change vs veh, TMEM135 / RFU, DEPTOR / Fold change vs veh, DEPTOR / RFU, CPM / Fold change vs veh, CPM / RFU, DNAJB6 / Fold change vs veh, DNAJB6 / RFU, CACNA2D3 / Fold change vs veh, CACNA2D3 / RFU, DTX4 / Fold change vs veh, DTX4 / RFU, TFCP2 / Fold change vs veh, TFCP2 / RFU, GMCL1 /// GMCL1P1 / Fold change vs veh, GMCL1 /// GMCL1P1 / RFU, AEBP2 / Fold change vs veh, AEBP2 / RFU, SNHG1 /// SNORD22 /// SNORD25 /// SNORD26 /// SNORD27 /// SNORD28 /// SNORD29 /// SNORD31 / Fold change vs veh, SNHG1 /// SNORD22 /// SNORD25 /// SNORD26 /// SNORD27 /// SNORD28 /// SNORD29 /// SNORD31 / Fold change (Aza/veh), C12orf56 (ProbeSet 11735607_a_at) / Fold change (ACY-1035/veh), C12orf56 (ProbeSet 11735607_a_at) / Fold change (Aza/veh), FGFR1OP (ProbeSet 11751329_s_at) / Fold change (ACY-1035/veh), FGFR1OP (ProbeSet 11751329_s_at) / Fold change (Aza/veh), VPS36 (ProbeSet 11739960_a_at) / Fold change (ACY-1035/veh), VPS36 (ProbeSet 11739960_a_at) / RFU SYPL1 (11715823_x_at) / Fold change /veh SYPL1 (11715823_x_at) / RFU IGFBP7 (11715501_s_at) / Fold change /veh IGFBP7 (11715501_s_at) / RFU REEP3 (11722064_at) / Fold change /veh REEP3 (11722064_at) / RFU IGLL1 (11728026_x_at) / Fold change /veh IGLL1 (11728026_x_at): dose or concentration left out as unconfirmed
Conditions: MV-4-11 cells, 48 hours

**Q.** `Nc1ncn([C@@H]2O[C@H](CO)[C@@H](O)[C@H]2O)c(=O)n1` [azacitidine] was tested. Which “RFU CAPN14 (11732068_a_at)” value did it give?
**A.** 10.94 RFU

— article PMC5218480 (PLoS ONE, 2017)
